The values below are quoted from earlier work in article PMC4153342 (Vaccine, 2014).

For the data set, the system named is HLA-A2 on TAP-deficient/HLA-A2+ T2 cells. The settings on record: previously reported.
As to AMTKLGFKA [p57], the “affinity for HLA-A2 in vitro” value is “have affinity for HLA-A2”.
As for KASEKIFYV [p41], the “affinity for HLA-A2 in vitro” value was “have affinity for HLA-A2”.
In the case of MTFGRLQGI [p99], the “affinity for HLA-A2 in vitro” value was “have affinity for HLA-A2”.
For RLQGISPKI [p103], the “affinity for HLA-A2 in vitro” value is “have affinity for HLA-A2”.
